Reference: the PolyMetriX glass transition set
± gives the standard deviation of the reports.

Row | SMILES | glass transition temperature
1 | *CCCCOC(=O)CCCCCCCC(=O)O* (repeat unit) | -62.50 °C
2 | *=Nc1ccc(Cc2ccc(NC(=*)C)cc2)cc1 (repeat unit) | 142.00 °C
3 | *C1C(=O)N(C2CCCCC2)C(=O)C1* (repeat unit) | 232.00 °C
4 | *CCN(CCOC(=O)/C=C/c1ccc(/C=C/C(=O)O*)cc1)c1ccc(/N=N/c2ccc([N+](=O)[O-])cc2)cc1 (repeat unit) | 120.00 °C
5 | *Oc1ccc(C(=O)Nc2ccccc2-c2ccc(NC(=O)c3ccc(*)cc3)cc2)cc1 (repeat unit) | 251.00 °C
6 | *Oc1c(C)cc(*)cc1C(C)CCCCCCCCCCCC (repeat unit) | -10.00 °C
7 | *c1ccc2c(c1)C(CCCCCC)(CCCCCC)c1cc(-c3ccc4c(c3)C(CC3=NC(Cc5ccccc5)CO3)(CC3=NC(Cc5ccccc5)CO3)c3cc(*)ccc3-4)ccc1-2 (repeat unit) | 114.00 °C
8 | *Oc1ccc(C2(c3ccc(OC(=O)CCCCCCCCCCC(*)=O)cc3)c3ccccc3-c3ccccc32)cc1 (repeat unit) | 117.00 °C
9 | *NC1CC(C)(C)CC(C)(CNC(=O)CCCCC(*)=O)C1 (repeat unit) | 150.80 °C
10 | *c1ccc2c(c1)C(=O)N(c1ccc(Oc3ccc(C(=O)c4ccc(Oc5ccc(N6C(=O)c7ccc(C(*)(C(F)(F)F)C(F)(F)F)cc7C6=O)cc5)cc4)cc3)cc1)C2=O (repeat unit) | 266.00 °C
11 | *CC(CCCCCCOc1ccc(/N=N/c2ccc(OC)cc2)cc1)COC(=O)CCCCC(=O)O* (repeat unit) | 22.00 °C
12 | *c1c(C)cc(C(c2cccnc2)c2cc(C)c(N3C(=O)CC(Nc4ccc(NC5CC(=O)N(*)C5=O)cc4)C3=O)c(C)c2)cc1C (repeat unit) | 231.00 °C
13 | *OS(=O)(=O)c1cc(S(=O)(=O)Oc2ccc(C3(c4ccc(*)cc4)CCCCC3)cc2)ccc1C (repeat unit) | 142.00 °C
14 | *CC(O)COc1ccc(S(=O)(=O)c2ccc(OCC(O)COc3c(C)cc(S(=O)(=O)c4cc(C)c(O*)c(C)c4)cc3C)cc2)cc1 (repeat unit) | 145.00 °C
15 | *O[Si](C)(C)c1cc(OCCO)c([Si](*)(C)C)cc1OCCO (repeat unit) | 73.00 °C
16 | *C(*)F (repeat unit) | 102.00 °C
17 | *OC(=O)C(C)NC(=O)CCCCCC(=O)NC(C)C(=O)OC1COC2C(*)COC12 (repeat unit) | 45.00 °C
18 | *c1ncnc(N(CCCCCCCCCCN(*)c2ccccc2)c2ccccc2)n1 (repeat unit) | 55.00 °C
19 | *CC(*)OCC (repeat unit) [Poly(ethyl vinyl ether)] | -26.58 ± 9.8 °C
20 | *c1ccc(C(=O)Nc2ccc(Oc3ccc(NC(=O)c4ccc(Oc5ccc(-c6nn(*)c(=O)c7ccccc67)cc5)cc4)cc3)cc2)cc1 (repeat unit) | 280.00 °C
21 | *O[Si](C)(C)O[Si](C)(C)O[Si](C)(C)Oc1c(C)cc(-c2cc(C)c(*)c(C)c2)cc1C (repeat unit) | 14.00 °C
22 | *=NP(=NP(=NC(=*)Oc1ccc(C(=O)OC)cc1)(Oc1ccc(C(=O)OC)cc1)Oc1ccc(C(=O)OC)cc1)(Oc1ccc(C(=O)OC)cc1)Oc1ccc(C(=O)OC)cc1 (repeat unit) | 52.00 °C

Row | SMILES | glass transition temperature
23 | *CC(*)c1ccc(CCCCCCCCCCCCCCCC)cc1 (repeat unit) | 4.50 °C
24 | *Oc1ccc(Oc2ccc(NC(=O)c3ccc(Oc4ccc(Oc5ccc(C(=O)Nc6ccc(*)cc6)cc5)cc4)cc3)cc2)cc1 (repeat unit) | 236.00 °C
25 | *CC(*)c1ccc(Cl)cc1Cl (repeat unit) [Poly(2,4-dichloro styrene) ] | 133 ± 2.6 °C
26 | *CC(*)OC(=O)OC([2H])([2H])[2H] (repeat unit) | 55.00 °C
27 | *CCCCCCNC(=O)CCP(=S)(CCC(=O)N*)c1ccccc1 (repeat unit) | 43.00 °C
28 | *CC1CCCC(CN2C(=O)c3ccc(C(c4ccc5c(c4)C(=O)N(*)C5=O)(C(F)(F)F)C(F)(F)F)cc3C2=O)C1 (repeat unit) | 222.00 °C
29 | *COc1ccc(C(C)(C)c2ccc(O*)cc2)cc1 (repeat unit) | 90.00 °C
30 | *c1cc(Br)c(-c2c(Br)cc(N3C(=O)c4ccc(-c5ccc6c(c5)C(=O)N(*)C6=O)cc4C3=O)cc2C(=O)OCCCCCCCCCCCCCCCCCC)c(C(=O)OCCCCCCCCCCCCCCCCCC)c1 (repeat unit) | 83.50 °C
31 | *c1ccc(-c2cc(C(C)(C)C)c(Oc3ccc(N4C(=O)c5ccc(S(=O)(=O)c6ccc7c(c6)C(=O)N(*)C7=O)cc5C4=O)cc3)c(C(C)(C)C)c2)cc1 (repeat unit) | 354.50 °C
32 | *Oc1ccc(Oc2ccc(C(=O)c3ccc(NC(=O)c4cccc(C(=O)Nc5ccc(C(=O)c6ccc(*)cc6)cc5)c4)cc3)cc2)cc1 (repeat unit) | 198.00 °C
33 | *CC(CCC)C(CCC)COC(=O)c1ccc(C(=O)O*)cc1 (repeat unit) | 30.00 °C
34 | *CCCCCCNC(=O)c1ccc(C(=O)N*)c(Oc2ccc(F)cc2)c1 (repeat unit) | 113.00 °C
35 | *c1ccc(Cc2ccc(N3C(=O)C4CCC(C5CCC6C(=O)N(*)C(=O)C6C5)CC4C3=O)cc2)cc1 (repeat unit) | 260.00 °C
36 | *C(=O)Nc1ccc(-c2cc(-c3ccccc3)cc(-c3ccc(NC(=O)c4ccc5c(c4)C(=O)N(c4ccc(Oc6cccc7c(N8C(=O)c9ccc(*)cc9C8=O)cccc67)cc4)C5=O)cc3)n2)cc1 (repeat unit) | 295.00 °C
37 | *CC(CO*)(CS(=O)(=O)CCC)CS(=O)(=O)CCC (repeat unit) | 71.00 °C
38 | *CCC(=O)NCCCCCCNC(=O)CCS* (repeat unit) | 27.00 °C
39 | *CC(F)(F)/C(F)=C(/*)Cl (repeat unit) | -17.00 °C
40 | *CCCCCCCCCCCC(=O)Oc1ccc(C2(c3ccc(OC(=O)c4ccc5c(c4)C(=O)N(*)C5=O)cc3)CCCCC2)cc1 (repeat unit) | 96.00 °C
41 | *Oc1ccc(S(=O)(=O)c2ccc(OC(=O)c3cccc(C(*)=O)c3)cc2)cc1 (repeat unit) | 249.00 °C
42 | *c1cc(C(=O)NCCCCCCCC)cc(N2C(=O)c3ccc(-c4ccc5c(c4)C(=O)N(*)C5=O)cc3C2=O)c1 (repeat unit) | 245.50 °C
43 | *Oc1cc(OC(=O)c2ccc(OC)cc2)c(OC(=O)CCCCCCCCCCCCCCC(*)=O)cc1OC(=O)c1ccc(OC)cc1 (repeat unit) | 33.00 °C
44 | *CC(*)(C)C(=O)OCCN(CC)CC (repeat unit) | 26.00 °C

Row | SMILES | glass transition temperature
45 | *CC(*)c1ccc(C(=O)N2CCOCC2)cc1 (repeat unit) | 127.00 °C
46 | *Nc1cccc(NC(=O)c2cccc(C(*)=O)c2)c1 (repeat unit) | 275.00 °C
47 | *c1ccc(S(=O)(=O)c2ccc(N3C(=O)c4ccc(Oc5ccc(C(C)(C)c6ccc(Oc7ccc8c(c7)C(=O)N(*)C8=O)cc6)cc5)cc4C3=O)cc2)cc1 (repeat unit) | 267.00 °C
48 | *c1ccc(Oc2ccc(C(=O)c3ccc(Cc4ccc(C(=O)c5ccc(Oc6ccc(-c7nc(-c8ccccc8)[nH]c7*)cc6)cc5)cc4)cc3)cc2)cc1 (repeat unit) | 231.00 °C
49 | *Oc1ccc(/C(=C/c2ccc(-c3ccc(/C=C(\c4ccccc4)c4ccc(OC(=O)CCCCC(*)=O)cc4)cc3)cc2)c2ccccc2)cc1 (repeat unit) | 128.00 °C
50 | *CCCCCCOC(=O)c1ccc2cc(C(=O)O*)ccc2c1 (repeat unit) | 64.00 °C
51 | *Oc1ccc(-c2ccc(Oc3ccc(C(=O)c4ccc(C(=O)c5ccc(*)c(C(F)(F)F)c5)cc4)cc3C(F)(F)F)cc2)cc1 (repeat unit) | 187.00 °C
52 | *c1ccc([Si](c2ccccc2)(c2ccccc2)c2ccc(-c3ccc4c(c3)c3cc(*)ccc3n4CCCCCC#N)cc2)cc1 (repeat unit) | 165.00 °C
53 | *C(=O)Nc1ccc(Oc2cccc(NC(=O)c3ccc4c(c3)C(=O)N(c3ccc(Oc5ccc6ccc(Oc7ccc(N8C(=O)c9ccc(*)cc9C8=O)cc7)cc6c5)cc3)C4=O)c2)cc1 (repeat unit) | 263.00 °C
54 | *Oc1ccc(Cc2ccc(OC(=O)OCC3CCC(COC(*)=O)CC3)cc2)cc1 (repeat unit) | 56.90 °C
55 | *CC(*)OC(=O)c1ccc(Br)cc1 (repeat unit) | 85.50 °C
56 | *Oc1ccc2ccc(Oc3ccc(C(=O)Nc4cccc(Oc5ccc(NC(=O)c6ccc(*)cc6)cc5)c4)cc3)cc2c1 (repeat unit) | 164.00 °C
57 | *Sc1c(C)cc(*)cc1C (repeat unit) | 198.00 °C
58 | *Oc1ccc(/C=C/C(=O)c2ccc(Oc3ccc(C(C)(C)c4ccc(*)cc4)cc3)cc2)cc1 (repeat unit) | 152.00 °C
59 | *c1cc(C(c2ccc(O)c(N3C(=O)c4ccc(Oc5ccc6c(c5)C(=O)N(*)C6=O)cc4C3=O)c2)(C(F)(F)F)C(F)(F)F)ccc1O (repeat unit) | 266.00 °C
60 | *C(=O)Nc1ccc(Oc2ccc(-c3ccc(Oc4ccc(NC(=O)c5ccc6c(c5)C(=O)N(c5ccc(Oc7ccc(S(=O)(=O)c8ccc(Oc9ccc(N%10C(=O)c%11ccc(*)cc%11C%10=O)cc9)cc8)cc7)cc5)C6=O)cc4)cc3)cc2)cc1 (repeat unit) | 267.00 °C
61 | *Oc1ccc(S(=O)(=O)c2ccc(OC3(F)C(*)(F)C(F)(F)C3(F)F)cc2)cc1 (repeat unit) | 162.20 °C
62 | *c1ccc2c(c1)C(=O)N(c1ccc(OCCOCCOCCOc3ccc(N4C(=O)c5ccc(C(*)(C(F)(F)F)C(F)(F)F)cc5C4=O)cc3)cc1)C2=O (repeat unit) | 166.00 °C
63 | *Oc1ccc(CC(Cc2ccc(*)cc2)(C(=O)OCC)C(=O)OCC)cc1 (repeat unit) | 54.00 °C
64 | *c1ccc(OCCCOc2ccc(N3C(=O)c4ccc(-c5cccc6c5C(=O)N(*)C6=O)cc4C3=O)cc2)cc1 (repeat unit) | 237.50 °C
65 | *Oc1ccc2ccc(Oc3ccc(/C(=N/c4ccc(/N=C(\c5ccccc5)c5ccc(*)cc5)cc4)c4ccccc4)cc3)cc2c1 (repeat unit) | 171.00 °C
